Values of other authors, collected in patent publication US7892838B2, “Method for the in vivo modification of the synthesis activity of a metabolite by means of the modification of a gene the activity of which is not the original activity” (Institut Pasteur, priority 2003, dated 2011).

Test system: HIV (human immunodeficiency virus)

SMILES | inhibition of the replication of HIV
OC[C@@H]1CC[C@H](n2cnc3c(O)ncnc32)O1 [ddI, 2′,3′-dideoxyinosine] | effectively inhibit the replication of HIV
Nc1ncnc2c1ncn2[C@H]1CC[C@@H](CO)O1 [ddA, 2′,3′-dideoxyadenosine] | effectively inhibit the replication of HIV
